In publication PMC11513920, “Building Metabolically Stable and Potent Anti-HIV Thioether-Lipid Analogues of Tenofovir Exalidex: A thorough Pharmacological Analysis” (Journal of Medicinal Chemistry, 2024):

Columns and labels:
[1] = Human liver microsome stability; details: for remaining at 2 h, 3 μM / half-life at 3 μM / half-life at 2.083 h, 3 µM: human; for remaining at 2 h, 3 μM: HLM % remaining; for remaining at 2 h, 3 μM / HLM % remaining: relative percent remaining of prodrug at 120 min
Description: Human liver microsomes (HLMs, 20 mg/mL) and CD-1 mouse liver microsomes (MLMs, 20 mg/mL) were purchased from Xenotech. NADPH was purchased from Sigma-Aldrich and prepared in 10 mM stock solutions of distilled H2O (Invitrogen UltraPure). […] Test compounds and positive controls were initially dissolved in MeOH to make 10 mM stock solutions. Sample solutions were then further diluted in 70/30 MeOH/H2O to 500 μM. Next, the reactions were prepared by mixing human or mouse liver microsomes (55 μL) with potassium phosphate buffer (100 mM, 928 μL) in 1.5 mL Eppendorf tubes. The test compounds (6.6 μL of 500 μM solution) were subsequently added to the suspensions, and the reaction mixtures were incubated at 37 °C for 5 min. Afterward, the liver microsome reactions were initiated with 110 μL of 10 mM NADPH and further incubated at 37 °C for the designated time course of the study. […] Each test compound was run in tandem with positive and negative control experiments for quality assurance. Positive control reactions were conducted at a final volume of 550 μL for a single run of each time point.
For both LM and plasma stability assays, each data point was analyzed in duplicate using in-between blank washes to avoid carry over and to equilibrate the column for the subsequent runs. Averages of these duplicate for individual compounds at each time point were then normalized to the data at 0 min, representing 100% test compound remaining or 0% metabolism. Half-lives (t1/2) were calculated by plotting ln of % test compound remaining versus time and performing linear regression to determine slope.
Metabolic Stability Assays
Liver Microsome Stability
Liver Microsome Stability Assay Setup Example
Quenching Mixture: 100 µL MeOH with ISTD (2 µM d5-7-ethoxycoumarin).
Final Volume After Quenching: 200 µL (100 µL from reaction mixture + 100 µL quencher
solution; ISTD final concentration of 1.0 µM).

[2] = HepaRG cellular uptake; details: human, HepaRG Cmax, 20 μM, HSA formulation 5:1, recorded after 3 h incubation
From the text: (§9) Naturally, due the metabolic complexity of HepaRG cells, we specifically analyzed prodrug cellular uptake and stability, as represented by Cmax and intrinsic clearance (Clint,u) accordingly (Figure 7 and Table 9).
(§10) The HepaRG cell line (HPRGC10, Thermo Fisher Scientific) was used to evaluate the cellular permeability and metabolic stability for select final compounds in vitro. The cells were initially thawed with working media composed of HepaRG Thaw, Plate, & General Purpose Medium Supplement (HPRG670), Williams Medium E (100 mL), and GlutaMax (1 mL), all purchased from Thermo Fisher Scientific. […] After the thawing medium was aspirated from each well, the cells were cultured for an additional 6 days with working media consisting of HepaRG Maintenance/Metabolism Medium Supplement (HPRG720), Williams Medium E (500 mL), and GlutaMax (1 mL), all purchased from Thermo Fisher Scientific. Upon completing the 7-day culture period, HepaRG cells were plated in enough wells to allow for duplicate analysis of prodrugs in two independent cellular uptake or metabolic stability experiments. All studied compounds were formulated with human serum albumin (HSA, 5:1 compound to HSA molar ratio) and subsequently diluted to a 20 μM final concentration with assay medium composed of serum-free INVITROGRO HI Medium and TORPEDO Antibiotic Mix purchased from BioIVT. For cellular uptake determinations, the maintenance/metabolism medium was first aspirated from each well, and then the plated cells were spiked with 1.0 mL of test compound stock solution. Subsequently, the plate was incubated at 37 °C under 5% CO2 environment over the desired time course (seven data points/compound). Blank wells not treated with prodrug were included in assay runs as controls and initial time points (0 min). At each time point, the test compound solution was removed from the appropriate wells, and the plated cells were washed with 1.0 mL of DPBS twice. The HepaRG cells were then extracted with 500 μL of cold ISTD solution (1 μM 7-ethoxy-d5-coumarin in 70/30 MeOH/H2O), and the quenched aliquots were centrifuged at 15,000 g for 10 min at 4 °C. […] After obtaining prodrug Cmax and Tmax values from the cellular uptake assay, HepaRG metabolic stability was then assessed. Following the initial 7-day culture procedure, the maintenance/metabolism medium was aspirated from each well, and the plated cells were spiked with 1.0 mL of test compound stock solution. […] The test compound solution was then removed from each well and replaced with untreated dilution medium (i.e., serum-free INVITROGRO HI Medium and TORPEDO Antibiotic Mix), initializing the stability determination. The HepaRG plate was once more incubated at 37 °C under 5% CO2 atmosphere over the desired time course (nine data points/compound), and sample preparation and analysis were handled in identical fashion to cellular uptake experiments.

[3] = system: HepaRG cells; assay: HepaRG cellular uptake; details: 20 µM
From the text: as §9, §10

[4] = HepaRG cellular metabolic stability; details: human, other cell line; for hepatocyte CLint at 20 μM: HepaRG Clint,u, calculated from cellular t1/2; for half-life at 20 μM: HepaRG t1/2, after 3 h loading at 20 μM, 37 °C
[5] = system: HepaRG cells; assay: HepaRG cellular metabolic stability; details: for HepaRG t1/2: after 3 h loading at 20 μM, 37 °C
[6] = Cellular cytotoxicity (cell viability, CellTiter 96 or resazurin); details: human, CC50, HEK293T cells, compounds formulated with HSA (5:1)
Description: (§11) Second, HIV IC50 and cellular CC50 were determined with a pseudoviral, whole (HEK293T) cell, nonreplicative HIV assay, using the HIV-1 subtype C strain MJ4 (refer to Experimental Methods). To account for the unique amphiphilic properties of TXL and the novel HTP-based prodrugs, all compounds were formulated in a human serum albumin (HSA) solution (5:1 drug:protein).
(§12) Assessment of cytotoxicity and antiviral activity of all final compounds in vitro was conducted according to previously reported procedures.[39] In summary, human embryonic kidney (HEK293T) cells maintained in high glucose (25 mM), Dulbecco’s modified Eagle’s medium (DMEM) supplemented with fetal bovine serum (10%), sodium pyruvate (1 mM), L-glutamine (2 mM), HEPES (25 mM), and gentamicin (50 μg/mL) were used for determinations. The cells were maintained in an incubator at 37 °C under 5% CO2 in a humidified atmosphere. For both cytotoxicity and antiviral screening, all compounds were evaluated in duplicate in at least two independent experiments. All final compounds were formulated with human serum albumin (HSA, 5:1 compound to HSA molar ratio) and subsequently diluted with complete DMEM to 200 μM. Fifty microliters of test compound serial dilutions (3-fold) were prepared in 96-well culture plates, after which 50 μL of HEK293T cells (2 × 10^4 cells/well) was added. […] Cytotoxicity was then assessed by quantifying cell viability using the CellTiter 96 Aqueous One Solution Cell Proliferation Assay (Promega, Madison, WI) or resazurin sodium salt (cat# R7017, Merck, Darmstadt, Germany).[61] […] Antiviral activity was then assessed using a single-cycle, nonreplicating, envelope deleted HIV pseudoviral in vitro assay.[62],[63] The assay relies on the introduction of the firefly luciferase gene into HEK293T cells through infection with HIV-like viral particles, containing Reverse Transcriptase (RT) and Integrase (IN) from the HIV-1 subtype C strain MJ4.[64] The expression of the luciferase in the cells is directly proportional to the level of infection by the HIV-like viral particles and can be used to assess the inhibition of HIV-1 RT and IN. To evaluate anti-HIV activity, 3-fold serial dilutions of all final compounds were prepared in 50 μL over the noncytotoxic concentration range (as determined from the cytotoxicity screens described above) in 96-well culture plates. HEK293T cells (2 × 10^4 cells/well) and HIV-like viral particles, standardized to produce a luminescence signal of 1 × 10^6 relative light units (RLUs) in the growth medium only control, were combined, and 50 μL was added to the wells containing serially diluted test compounds. […] The expression of luciferase was subsequently quantified by adding 100 μL of the Bright-Glo Luciferase Assay substrate (Promega, Madison, WI) to each well of the 96-well plates. After incubation at rt for 3 min, luminescence was quantified on the GloMax Explorer Multimode Microplate Reader (Promega, Madison, WI).

[7] = system: HIV-1 subtype C strain MJ4; assay: Single-cycle non-replicating HIV pseudoviral luciferase assay in HEK293T cells; details: Human immunodeficiency virus 1, HEK-293T, read-out: HIV IC50
Description: as §11, §12

[8] = Solubility in antiviral/cytotoxicity assay medium; assay type: physicochemical; details: despite formulation with HSA
From the text: Nevertheless, due to the promising metabolic profile of 2i and 2j, our lab is continuing to analyze TXL analogs with chain lengths beyond 20 atoms and will disclose a report in the future. However, for the sake of this study, 2a remained as the most pharmacologically attractive starting point for ω-functionalization.

[9] = system: HEK293T cells; assay: Cellular cytotoxicity (cell viability, CellTiter 96 or resazurin); details: HEK293T cells, 48 h, compounds formulated with HSA (5:1)
Description: as §11, §12

[10] = Human plasma stability; assay type: in vitro ADME; details: both sexes, human, plasma; 3 μM, 37 °C, 240 min course; read-out: human plasma t1/2
Description: (§1) Human plasma (lithium heparin (LiHep) mixed, gender pooled, 0.2 μm filtered) and mouse plasma (BALB/C, LiHep mixed, male pooled, 0.2 μm filtered) were purchased from BioIVT. Procaine (Sigma-Aldrich) served as a positive control for both human and mouse plasma experiments. […] Next, the human or mouse plasma (994 μL) was aliquoted into 1.5 mL Eppendorf tubes with duplicates (reactions A and B) being prepared for each compound. The plasma was then incubated at 37 °C for 10 min. […] This procedure provided duplicate experiments with a final volume of 1000 μL (<0.2% organic solvent content) and a final test compound concentration of 3 μM. Aliquots (100 μL) were removed from each reaction mixture at 0, 30, 60, 120, and 240 min time intervals and quenched with 150 μL of cold ISTD solution (2 μM 7-ethoxy-d5-coumarin in MeOH). […] The positive control reaction was conducted at a final volume of 1000 μL for a single run of each time point. Finally, the negative control experiment was conducted with test compounds in Dulbecco’s phosphate buffered saline without calcium and magnesium (DPBS, Fisher Scientific, 143 μL) and analyzed at the 240 min time point.
(§2) Plasma Stability Assay Setup Example
(§3) Test Compound: 994 µL Human or Mouse Plasma + 6.0 µL TC (500 µM, Vial A).
(§4) 994 µL Human or Mouse Plasma + 6.0 µL TC (500 µM, Vial B).
(§5) Positive Control: 994 µL Human or Mouse Plasma + 6.0 µL Procaine (500 µM).
(§6) Negative Control: 142 µL DPBS (1X, pH 7.1-7.3) + 0.9 µL TC (500 µM).
(§7) Quenching Mixture: 150 µL MeOH with ISTD (2 µM d5-7-ethoxycoumarin).
(§8) Final Volume After Quenching: 250 µL (100 µL from reaction mixture and 150 µL quencher
solution; ISTD final concentration of 1.2 µM).
Human Plasma Stability of Compound 2a at 37 °C
Figure S29. In vitro human plasma stability of 2a (5 points over 240 min) with procaine serving

[11] = Mouse plasma stability; assay type: in vitro ADME; details: male, BALB/C, mouse, plasma; 3 μM, 37 °C, 240 min course; read-out: mouse plasma t1/2
Description: as §1, §2, §3, §4, §5, §6, §7, §8
solution; ISTD final concentration of 1.2 µM). […]

[12] = microsomes, HLM t1/2, HLM 1 mg/mL, 3 μM compound, NADPH, 37 °C, 120 min course

SMILES | remaining at 2 h, 3 μM ([1]; microsomes) | half-life at 3 μM [1, 12] | CC50 at 48 h [6] | half-life at 2.083 h, 3 µM [1, 12] | also measured
C[C@H](Cn1cnc2c(N)ncnc21)OCP(=O)(O)OCCCSCCCCCCCCCCCCCCC(C)(C)C.N [16e] | 95% | > 2 h | 24 ± 1.4 µM |  | HLM % remaining [1]: > 95%; Cmax at 3 h, 20 μM [2]: 1100 ± 63.6 ng/mL; mean prodrug concentration in HepaRG cells ([3]; 0.5 h): 625.22 ng/mL; mean prodrug concentration in HepaRG cells ([3]; 1 h): 984.12 ng/mL; mean prodrug concentration in HepaRG cells ([3]; 3 h): 1100.03 ng/mL; mean prodrug concentration in HepaRG cells ([3]; 4 h): 1000.18 ng/mL; mean prodrug concentration in HepaRG cells ([3]; 6 h): 1196.77 ng/mL; hepatocyte CLint at 20 μM [4]: 10.2 µL/min/1e6 cells; half-life at 20 μM [4]: 2.05 h; HepaRG t1/2 [5]: 2.052 ± 0.05 h; IC50 [7]: 0.177 µM
C[C@H](Cn1cnc2c(N)ncnc21)OCP(=O)(O)OCCCSCCCCCCCCCCCOc1ccccc1.N [23a] |  | 0.133 h | > 100 µM | 0.14 ± 0.00167 h | 
CCCCCCCCCCCCCCCCCCSCCCOP(=O)(O)CO[C@H](C)Cn1cnc2c(N)ncnc21.N [2i] | 95% | > 2 h |  |  | HLM % remaining [1]: > 95%; solubility in the assay medium [8]: poor solubility
C[C@H](Cn1cnc2c(N)ncnc21)OCP(=O)(O)OCCCSCCCCCCCCCCC#Cc1ccc(F)cc1.N [15g] | 67% | > 2 h | > 100 µM |  | 
C[C@H](Cn1cnc2c(N)ncnc21)OCP(=O)(O)OCCCSCCCCCCCCCCCOc1ccc(F)cc1.N [23c] |  | 0.8 to 0.833 h | > 100 µM | 0.82833 ± 0.0005 h | 
C[C@H](Cn1cnc2c(N)ncnc21)OCP(=O)(O)OCCCSCCCCCCCCCCC#CC1CCCCC1.N [15h] | 67% | > 2 h | > 100 µM |  | HLM % remaining [1]: 70%
C[C@H](Cn1cnc2c(N)ncnc21)OCP(=O)(O)OCCCSCCCCCCCCCCC#Cc1ccccc1.N [15f] |  | 1.18 h | > 100 µM | 1.19 ± 0.0183 h | 
CCCCCCCCCCCCCCCCCSCCOP(=O)(O)CO[C@H](C)Cn1cnc2c(N)ncnc21.N [2b] |  | 1.1 h | 29 µM | 1.1 ± 0.0433 h | CC50 [9]: 28.6 ± 3.7 µM
C[C@H](Cn1cnc2c(N)ncnc21)OCP(=O)(O)OCCCSCCCCCCCCCCCSc1ccccc1.N [23b] |  |  | > 100 µM | 0.132 ± 0.00333 h | 
COC(=O)CCCCCCCCCCCCCCCSCCCOP(=O)(O)CO[C@H](C)Cn1cnc2c(N)ncnc21.N [23e] |  |  | > 100 µM | 0.0917 ± 0.005 h | 
CCCCSCCCCCCCCCCCCCCCOP(=O)(O)CO[C@H](C)Cn1cnc2c(N)ncnc21.N [2f] |  |  | > 100 µM | 0.32833 ± 5e-05 h | 
CC(C)[Si](C#CCCCCCCCCCCCSCCCOP(=O)(O)CO[C@H](C)Cn1cnc2c(N)ncnc21)(C(C)C)C(C)C.N [15d] | > 95% | > 2 h | 59.3 ± 2.4 µM |  | 
C#CCCCCCCCCCCCCCCSCCCOP(=O)(O)CO[C@H](C)Cn1cnc2c(N)ncnc21 [15b] |  |  |  |  | half-life at 3 μM ([1]; liver microsomes): > 1.58 h; half-life at 2.083 h, 3 µM ([1]; liver microsomes): 1.6 ± 0.03 h; IC50 [7]: 0.024 to 0.028 µM
CCCCCCCSCCCCCCCCCCCCOP(=O)(O)CO[C@H](C)Cn1cnc2c(N)ncnc21.N [2e] |  |  | > 100 µM | 0.3433 ± 0.00167 h | 
C[C@H](Cn1cnc2c(N)ncnc21)OCP(=O)(O)OCCCSCCCCCCCCCCCCc1ccccc1.N [16f] |  | 1.13 h | > 100 µM | 1.14 ± 0.00167 h | 
CCCCCCCCCCSCCCCCCCCCOP(=O)(O)CO[C@H](C)Cn1cnc2c(N)ncnc21.N [2d] |  |  | > 100 µM | 0.222 ± 0.00833 h | 
CCCCCCCCCCCCCSCCCCCCOP(=O)(O)CO[C@H](C)Cn1cnc2c(N)ncnc21.N [2c] |  | 1.1 h | > 100 µM | 1.1 ± 0.05 h | 
CCCCCCCCCCCCSCCCOP(=O)(O)CO[C@H](C)Cn1cnc2c(N)ncnc21.N [2g] |  |  | > 100 µM | 0.188 ± 0.00333 h | 
C[C@H](Cn1cnc2c(N)ncnc21)OCP(=O)(O)OCCCSCCCCCCCCCCCCC#C[Si](C)(C)C.N [15c] | 82% | > 1.58 h | > 100 µM |  | HLM t1/2 ([1]; HLM 1 mg/mL, 3 μM compound, NADPH, 37 °C, 120 min course): > 2 h; IC50 [7]: 0.024 to 0.028 µM
CCCCCCCCCCCCCCCCCCCCSCCCOP(=O)(O)CO[C@H](C)Cn1cnc2c(N)ncnc21.N [2j] | 95% | > 2 h |  |  | HLM % remaining [1]: > 95%; solubility in the assay medium [8]: poor solubility
CCN(CC)CCOC(=O)c1ccc(N)cc1 [Procaine, reference compound] |  |  |  |  | half-life at 3 μM [10]: 24 s; half-life at 3 μM [11]: 42 s
C[C@H](Cn1cnc2c(N)ncnc21)OCP(=O)(O)OCCCSCCCCCCCCCCCOC1CCCCC1.N [23d] |  | 0.8 to 0.833 h | > 100 µM | 0.7983 ± 0.00667 h | 
CCCCCCCCCCCCCCSCCCOP(=O)(O)CO[C@H](C)Cn1cnc2c(N)ncnc21.N [2h] |  |  | > 100 µM | 0.26 ± 0.00167 h | 
C[C@H](Cn1cnc2c(N)ncnc21)OCP(=O)(O)OCCCSCCCCCCCCCCCCC#CC(C)(C)C.N [15e] | 71% | > 2 h | > 100 µM |  | Cmax at 3 h, 20 μM [2]: 242 ± 5.5 ng/mL; mean prodrug concentration in HepaRG cells ([3]; 0.5 h): 169.76 ng/mL; mean prodrug concentration in HepaRG cells ([3]; 1 h): 211.84 ng/mL; mean prodrug concentration in HepaRG cells ([3]; 2 h): 233.02 ng/mL; mean prodrug concentration in HepaRG cells ([3]; 3 h): 241.98 ng/mL; mean prodrug concentration in HepaRG cells ([3]; 4 h): 281.89 ng/mL; mean prodrug concentration in HepaRG cells ([3]; 6 h): 321.96 ng/mL; hepatocyte CLint at 20 μM [4]: 18 to 19 µL/min/1e6 cells; half-life at 20 μM [4]: 1.12 to 1.18 h; HepaRG t1/2 [5]: 1.11 ± 0.0833 h; HepaRG Clint,u ([5]; calculated from cellular t1/2): 18.9 μL/min/million cells; IC50 [7]: 0.196 µM
